Test results as given in article PMC10132233 (Journal of Enzyme Inhibition and Medicinal Chemistry, 2023).

Experiments:
[1] = tested on: PC3 prostate carcinoma cell line; assay: MTT cytotoxicity assay, PC3; format: cell-based; conditions: Homo sapiens, 24 h
Source text: (§1) Accordingly, we aimed to investigate the cytotoxic potential of this new series against prostate carcinoma cell lines. […] The potent nanomolar cell-based activity of this series of compounds over the tested prostate carcinoma cell line could be attributed to other possible targets in addition to EGFR and HER2 receptors. The presence of the 2-nitroimidazole moiety in the chemical structure of compounds 9a–h could develop possible covalent bonds between the nitroimidazole moiety and some cellular proteins.
(§2) Prostate cancer cell lines (PC3 and 22RV1) of American Type Culture Collection (ATCC) were obtained from Korean Cell Center (KCL). PC3 and 22RV1 cell lines were cultured in Roswell Park Memorial Institute Medium (RPMI) 1640 and Dulbecco’s modified Eagle’s medium (DMEM) (GenDepot, Barker, TX) supplemented with 1% penicillin–streptomycin and 10% foetal bovine serum (FBS). The cells were maintained at 37 °C in a 5% CO2 with a 95% humid atmosphere.
(§3) To further analyse the intracellular cytotoxicity effect of the as-synthesised compounds, MTT assay was performed. Moreover, the experiments were divided into subcategories. In each group, cancer cells were first seeded in 96-well plates (4 × 10^4 cells per well) and then incubated for 24 h at 37 °C in a 5% CO2-containing atmosphere. Subsequently, the medium from the culture plate was removed, and 100 µL of RPMI media containing different concentrations of compounds (0.01, 0.005, 0.0025, 0.00125, and 0.000625 µM) were then added into the cell lines in each well and incubated for 24 h in a 5% CO2 humidified incubator at 37 °C. Afterwards, MTT solution (150 μL, 1 mg/mL) was added to each well, replacing the media-containing compounds. After 4 h of incubation, the MTT reagent was removed, and 200 μL of DMSO was then added to dissolve the formazan crystals, and colour intensity was measured at a wavelength of 540 nm using a BioTek Synergy H1 instrument (BioTek, Winooski, VT). IC50 was calculated according to the equation of Boltzmann sigmoidal concentration–response curve using Graph Pad Prism 5 (La Jolla, CA).

[2] = tested on: 22RV1 prostate carcinoma cell line; assay: MTT cytotoxicity assay, 22RV1; format: cell-based; conditions: Homo sapiens, 24 h
Source text: as §1, §2, §3

EGFR = EGFR (Homo sapiens, UniProt P00533); assay: HotSpot kinase assay over EGFR (Reaction Biology); conditions: read-out: % kinase inhibition EGFR
HER2 = HER2 (Homo sapiens, UniProt P04626); assay: HotSpot kinase assay over HER2 (Reaction Biology); conditions: read-out: % kinase inhibition HER2
HER2, sequence (P04626 23-1255): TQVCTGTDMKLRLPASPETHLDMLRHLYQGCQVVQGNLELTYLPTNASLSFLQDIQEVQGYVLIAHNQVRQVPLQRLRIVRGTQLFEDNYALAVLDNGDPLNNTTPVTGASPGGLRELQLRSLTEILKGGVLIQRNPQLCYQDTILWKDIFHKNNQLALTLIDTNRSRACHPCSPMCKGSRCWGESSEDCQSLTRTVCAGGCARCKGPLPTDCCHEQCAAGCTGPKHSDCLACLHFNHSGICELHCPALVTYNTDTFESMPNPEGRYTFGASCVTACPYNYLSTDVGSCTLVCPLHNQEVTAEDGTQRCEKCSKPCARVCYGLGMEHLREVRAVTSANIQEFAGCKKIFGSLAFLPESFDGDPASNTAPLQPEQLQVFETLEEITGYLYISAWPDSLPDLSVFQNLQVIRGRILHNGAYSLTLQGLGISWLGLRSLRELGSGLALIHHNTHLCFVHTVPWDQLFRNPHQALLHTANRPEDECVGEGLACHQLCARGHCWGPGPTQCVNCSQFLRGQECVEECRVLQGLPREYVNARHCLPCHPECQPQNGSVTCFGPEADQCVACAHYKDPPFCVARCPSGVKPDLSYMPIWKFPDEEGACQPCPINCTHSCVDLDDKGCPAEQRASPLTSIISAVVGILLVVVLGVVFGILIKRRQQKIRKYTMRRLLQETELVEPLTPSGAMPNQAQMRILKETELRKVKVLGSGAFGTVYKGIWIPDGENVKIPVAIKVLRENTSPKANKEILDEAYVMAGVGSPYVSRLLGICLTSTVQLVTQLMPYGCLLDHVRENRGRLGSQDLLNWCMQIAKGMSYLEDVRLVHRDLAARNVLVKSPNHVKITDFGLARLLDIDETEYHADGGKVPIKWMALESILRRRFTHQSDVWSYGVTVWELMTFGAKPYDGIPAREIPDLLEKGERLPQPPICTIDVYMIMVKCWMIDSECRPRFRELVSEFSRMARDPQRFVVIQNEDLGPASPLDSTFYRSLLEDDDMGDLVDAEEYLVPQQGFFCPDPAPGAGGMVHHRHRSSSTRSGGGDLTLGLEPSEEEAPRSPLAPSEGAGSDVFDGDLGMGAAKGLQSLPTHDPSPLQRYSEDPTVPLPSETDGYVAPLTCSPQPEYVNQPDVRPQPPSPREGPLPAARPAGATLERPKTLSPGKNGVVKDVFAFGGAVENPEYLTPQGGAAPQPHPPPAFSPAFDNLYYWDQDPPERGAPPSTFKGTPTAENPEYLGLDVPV

EGFR, sequence (P00533 25-1210): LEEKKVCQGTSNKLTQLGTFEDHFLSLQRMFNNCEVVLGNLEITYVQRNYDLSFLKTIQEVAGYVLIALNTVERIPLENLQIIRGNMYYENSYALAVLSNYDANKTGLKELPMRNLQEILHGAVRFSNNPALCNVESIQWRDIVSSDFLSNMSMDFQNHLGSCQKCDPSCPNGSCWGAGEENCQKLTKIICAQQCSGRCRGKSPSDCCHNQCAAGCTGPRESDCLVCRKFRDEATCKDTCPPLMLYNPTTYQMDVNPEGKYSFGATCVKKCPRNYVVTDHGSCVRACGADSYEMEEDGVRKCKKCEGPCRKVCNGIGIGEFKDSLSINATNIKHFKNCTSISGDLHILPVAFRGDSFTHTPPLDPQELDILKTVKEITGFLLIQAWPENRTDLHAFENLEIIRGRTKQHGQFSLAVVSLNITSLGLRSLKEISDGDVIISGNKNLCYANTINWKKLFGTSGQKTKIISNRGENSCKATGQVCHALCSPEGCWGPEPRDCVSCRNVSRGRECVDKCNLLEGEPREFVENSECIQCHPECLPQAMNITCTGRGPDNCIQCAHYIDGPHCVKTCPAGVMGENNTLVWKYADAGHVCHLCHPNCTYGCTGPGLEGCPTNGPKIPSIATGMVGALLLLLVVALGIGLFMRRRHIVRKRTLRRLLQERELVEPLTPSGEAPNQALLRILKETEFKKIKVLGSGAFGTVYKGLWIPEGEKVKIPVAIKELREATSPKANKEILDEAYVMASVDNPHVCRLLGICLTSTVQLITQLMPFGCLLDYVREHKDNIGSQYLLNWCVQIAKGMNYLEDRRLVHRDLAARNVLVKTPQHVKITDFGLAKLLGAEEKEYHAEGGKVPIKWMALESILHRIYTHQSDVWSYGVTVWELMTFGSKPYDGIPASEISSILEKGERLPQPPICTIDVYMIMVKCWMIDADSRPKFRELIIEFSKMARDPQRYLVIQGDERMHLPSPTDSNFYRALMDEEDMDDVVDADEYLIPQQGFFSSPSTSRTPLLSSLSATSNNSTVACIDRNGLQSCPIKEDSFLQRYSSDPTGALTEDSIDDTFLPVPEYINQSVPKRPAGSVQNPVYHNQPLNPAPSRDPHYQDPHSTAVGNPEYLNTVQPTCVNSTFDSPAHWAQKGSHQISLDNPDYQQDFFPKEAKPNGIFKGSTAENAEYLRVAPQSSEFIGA

Row | SMILES | IC50 [1] | IC50 [2] | melting point | inhibition at 10 µM (EGFR) | inhibition at 10 µM (HER2)
1 | COc1cc2ncnc(Nc3ccc(Oc4ccc(Cl)c(Cl)c4)c(Cl)c3)c2cc1OCCCCn1ccnc1[N+](=O)[O-] [Compound 9b, N-(3-Chloro-4-(3,4-dichlorophenoxy)phenyl)-7-methoxy-6-(4-(2-nitro-1H-imidazol-1-yl)butoxy)quinazolin-4-amine] | 3.1 nM | 2 nM | 101 to 102 °C | 94.2% | 80.3%
2 | COc1cc2ncnc(Nc3ccc(Oc4ccc(Cl)c(Cl)c4)c(Cl)c3)c2cc1OCCCCCn1ccnc1[N+](=O)[O-] [Compound 9c, N-(3-Chloro-4-(3,4-dichlorophenoxy)phenyl)-7-methoxy-6-((5-(2-nitro-1H-imidazol-1-yl)pentyl)oxy)quinazolin-4-amine] | 3.3 nM | 1.9 nM | 94 to 95 °C | 90% | 78.6%
3 | COc1cc2ncnc(Nc3ccc(Oc4cccc(C(F)(F)F)c4)c(Cl)c3)c2cc1OCCCCCn1ccnc1[N+](=O)[O-] [Compound 9g, N-(3-Chloro-4-(3-(trifluoromethyl)phenoxy)phenyl)-7-methoxy-6-((5-(2-nitro-1H-imidazol-1-yl)pentyl)oxy)quinazolin-4-amine] | 4.6 nM | 1.3 nM | 90 to 91 °C | 99.2% | 96.2%
4 | COc1cc2ncnc(Nc3ccc(Oc4ccc(Cl)c(Cl)c4)c(Cl)c3)c2cc1OCCCn1ccnc1[N+](=O)[O-] [Compound 9a, N-(3-Chloro-4-(3,4-dichlorophenoxy)phenyl)-7-methoxy-6-(3-(2-nitro-1H-imidazol-1-yl)propoxy)quinazolin-4-amine] | 6.1 nM | 2.3 nM | 237 to 238 °C | 89% | 69.8%
5 | COc1cc2ncnc(Nc3ccc(Oc4cccc(C(F)(F)F)c4)c(Cl)c3)c2cc1OCCCCCCn1ccnc1[N+](=O)[O-] [Compound 9h, N-(3-Chloro-4-(3-(trifluoromethyl)phenoxy)phenyl)-7-methoxy-6-((6-(2-nitro-1H-imidazol-1-yl)hexyl)oxy)quinazolin-4-amine] | 5.6 nM | 1.1 nM | 84 to 85 °C | 96.8% | 97%
6 | COc1cc2ncnc(Nc3ccc(Oc4cccc(C(F)(F)F)c4)c(Cl)c3)c2cc1OCCCn1ccnc1[N+](=O)[O-] [Compound 9e, N-(3-Chloro-4-(3-(trifluoromethyl)phenoxy)phenyl)-7-methoxy-6-(3-(2-nitro-1H-imidazol-1-yl)propoxy)quinazolin-4-amine] | 7.3 nM | 0.8 nM | 232 to 233 °C | 98.9% | 81.7%
7 | COc1cc2ncnc(Nc3ccc(Oc4ccc(Cl)c(Cl)c4)c(Cl)c3)c2cc1OCCCCCCn1ccnc1[N+](=O)[O-] [Compound 9d, N-(3-Chloro-4-(3,4-dichlorophenoxy)phenyl)-7-methoxy-6-((6-(2-nitro-1H-imidazol-1-yl)hexyl)oxy)quinazolin-4-amine] | 2.1 nM | 2.8 nM | 90 to 91 °C | 88.9% | 72.1%
